Measurements from patent publication US8871815B2, “Therapeutic compounds” (Signature Therapeutics, Inc., priority 2007, dated 2014).
Where two headings read alike, the source gives them in different places.

Legend:
[1] = test system: Beagle dogs; settings: dogs
[2] = test system: pigs; assay: Hemodynamic effects, arterial blood gas and serum chemistry in pigs, IV infusion; type: in vivo, pig; design: ABEc (acid base excess, corrected) / Glucose / Lactate: unit not given here; settings: for ABEc (acid base excess, corrected) / Glucose / Lactate / Potassium / pC02 / pH / pO2: arterial blood, 0.384 mg/kg/min x 20 min IV
Procedure: Anesthesia was induced with isoflurane. Intravascular access was obtained from an ear vein. Each pig was intubated and mechanically ventilated.
ECG was monitored throughout the study. […] Body temperature was maintained at 37° C.
Arterial blood gas samples from pigs infused with Compound 1 were taken and analyzed for blood gas and serum chemistry values; mean values are reported in Table 4.

[3] = test system: ferrets; assay: Pro-emetic activity in ferrets; type: in vivo, ferret; settings: 15 min IV infusion at 1 mg/kg/min, administered alone, 6 ferrets, 45 min
Text: Immediately prior to dosing, food and water were removed.

[4] = test system: pigs; assay: in vivo; settings: 384 μg per kg per min, pigs
Procedure: Experiments were performed on commercial farm-bred swine of either sex (mean weight 33.6 kg). Anesthesia was induced with isoflurane. Intravascular access was obtained from an ear vein. Each pig was intubated and mechanically ventilated. Tissue oxygenation was monitored using continuous pulse oximetry placed on the tongue. Ventilation was monitored using an inspired/expired gas analyzer that measured oxygen, carbon dioxide, and potent inhalation agent concentrations. Ventilator settings were adjusted as needed to maintain steady state.
ECG was monitored throughout the study. Arterial blood pressure was monitored through the cannulated left femoral artery. MAP, systolic and diastolic arterial pressures and heart rate were collected every 5 seconds. An internal jugular vein was cannulated with a pulmonary artery catheter for thermodilution estimates of cardiac output and blood temperature. Body temperature was maintained at 37° C. Instrumentation for EEG monitoring was accomplished using an adhesive electrode array over the fronto-occipital regions (Aspect Medical. Norwood, Mass., USA).
Metabolic and hemodynamic parameters for each group were compared at multiple time points using an unpaired two-tailed Student t test. To account for multiple comparisons and maintain the probability of a type I error below 0.05, P values less than 0.025 were considered significant.

[5] = test system: Beagle dogs; assay: Hemodynamic effects (blood pressure) in beagle dogs, bolus IV; type: in vivo, dog; settings: 4 min after administration
Procedure: The study was a crossover design. […] The MTD was defined as the dose that reduced mean arterial blood pressure (MAP) by 50% or to less than 50 millimeters of mercury (mmHg or mm Hg). All animals received supplemental oxygen and, if needed, ventilatory support after 4 min of apnea.
Hemodynamic data, such as mean arterial pressure (MAP), were recorded at baseline, 1, 2, 4, 8, 15, 20 and 30 min. Compound 1 was administered at 5, 10, 15 and 30 mg/kg to 3, 6, 6 and 3 dogs respectively. […] Data were analyzed with a 2-way ANOVA followed by t-test with Bonferroni correction for multiple comparisons.

[6] = target: T1, phosphodiesterase 2 (PDE2) (Homo sapiens, UniProt O00408); assay: Cerep Diversity Profile: enzymes, PDE2; type: biochemical; settings: tested at 10 μM; read-out: inhibition of control binding, PDE2
T1 construct: Cerep, Inc
T1 sequence (O00408 whole entry): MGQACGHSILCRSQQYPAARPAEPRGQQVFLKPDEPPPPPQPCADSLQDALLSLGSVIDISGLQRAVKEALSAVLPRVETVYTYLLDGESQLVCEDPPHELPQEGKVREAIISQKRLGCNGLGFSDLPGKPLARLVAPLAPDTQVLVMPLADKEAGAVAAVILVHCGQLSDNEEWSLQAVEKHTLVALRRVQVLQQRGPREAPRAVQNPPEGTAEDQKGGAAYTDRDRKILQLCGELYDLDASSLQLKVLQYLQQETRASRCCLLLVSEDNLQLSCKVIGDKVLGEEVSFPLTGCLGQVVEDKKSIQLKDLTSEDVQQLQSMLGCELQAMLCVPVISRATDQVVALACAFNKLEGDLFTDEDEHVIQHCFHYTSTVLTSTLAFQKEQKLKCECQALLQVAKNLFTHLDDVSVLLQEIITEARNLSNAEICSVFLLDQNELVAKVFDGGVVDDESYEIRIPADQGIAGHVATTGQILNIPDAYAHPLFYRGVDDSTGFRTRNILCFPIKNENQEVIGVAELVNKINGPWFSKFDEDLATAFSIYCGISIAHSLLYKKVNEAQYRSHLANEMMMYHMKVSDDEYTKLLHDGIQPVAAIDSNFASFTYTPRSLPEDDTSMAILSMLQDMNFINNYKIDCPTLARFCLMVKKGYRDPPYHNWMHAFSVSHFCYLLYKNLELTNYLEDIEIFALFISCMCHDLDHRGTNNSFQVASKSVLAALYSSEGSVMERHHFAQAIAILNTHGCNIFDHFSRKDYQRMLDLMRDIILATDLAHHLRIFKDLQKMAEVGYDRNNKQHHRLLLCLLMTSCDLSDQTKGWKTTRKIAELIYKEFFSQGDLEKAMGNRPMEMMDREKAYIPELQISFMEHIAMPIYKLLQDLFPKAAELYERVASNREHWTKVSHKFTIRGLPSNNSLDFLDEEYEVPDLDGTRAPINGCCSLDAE

[7] = test system: GABAA receptor; assay: Rat hippocampal brain slice electrophysiology assay; type: cell-based; settings: in the presence of EC20 of muscimol (2 μM); CA1 population spike; read-out: EC50, potentiation of the action of agonists at the GABAA receptor
Procedure: Rat hippocampal slices were prepared as follows: Male Wistar rats (100-125 g) were anesthetized with isoflurane and decapitated, the brains quickly removed, collected, blocked, and cut using a vibratome (OTS-4000, Electron Microscope Sciences) into 400 micron (μm) transverse sections. Slices were transferred to a warmed (33° C.), submerged tissue-recording chamber perfused at 2.5-3 ml/min with modified artificial cerebrospinal fluid (120 mM sodium chloride, 3.5 mM, potassium chloride, 2.5 mM calcium chloride, 1.3 mM magnesium chloride, 1.25 mM sodium phosphate, 26 mM sodium carbonate, 10 mM glucose, saturated with 95% oxygen, pH 7.4). […]
Electrophysiology testing was accomplished as follows: A glass rod electrode (1-2 μM tip diameter) was filled with 3M sodium chloride (NaCl) and placed in the CA1 pyramidal cell layer of hippocampal slices. […] Population responses of the CA1 pyramidal cells were recorded with an Axoprobe-1A (Axon Instruments, Molecular Devices, Sunnyvale, Calif.). pCLAMP 8.2 (Axon Instruments) was used for acquiring the data, and Clampfit (Axon Instruments) was used for analysis. […] Peak to peak amplitude of the population response from each stimulus was measured as an indicator of cell excitability. […]
Data were acquired and analyzed using Clampfit and Excel (Microsoft), and reported as mean and individual values.

[8] = Anesthetic effects in rats, bolus IV, Loss of Righting Reflex (LORR); type: in vivo, rat; settings: male, Sprague-Dawley, rat, in vivo; bolus IV, rats; read-out: MTD (maximum tolerated dose)
Procedure: (§1) Also measured was minimum dose to achieve LORR and maximum tolerated dose (MTD).
(§2) The ranges of doses studied were 1.9, 2.3, 3.0, 7.0, 13.7, 14.0 and 15.2 mg/kg for Compound 1 and 3.5, 4.0, 7.0 and 14.0 mg/kg for […].

[9] = test system: male Sprague-Dawley rats; assay: as above; type: in vivo, rat; settings: rats
Procedure: as §1, §2

## CC[C@@H](C)c1cccc([C@H](C)CC)c1O [Compound 1]
[1]; 5 mg/kg bolus IV
  duration of anesthesia (sleep time): 24 min
[1]; 10 mg/kg bolus IV
  duration of anesthesia (sleep time): 43 min
[1]; 15 mg/kg bolus IV
  duration of anesthesia (sleep time): 77 min
[1]; 30 mg/kg bolus IV
  duration of anesthesia (sleep time): 105 min
[2]; IV infusion, pigs
  metabolic alterations such as metabolic acidosis or increased lactate: did not produce any significant metabolic alterations
  reduction of cardiac output compared to propofol: no significant difference
[2]; IV infusion, pigs (Compound 1 0.384, propofol 0.750 mg/kg/min)
  lowest HR measured: 129±6 bpm
[2]; IV infusion, pigs (Compound 1 0.384, propofol 0.750 mg/kg/min), FIG. 1 in mm Hg
  MAP (mean arterial pressure): 106±3
[2]; pigs, Min 0
  ABEc (acid base excess, corrected): 5.6
  Glucose: 99.6
  Lactate: 1.43
  Potassium: 3.80
  pC02: 38.8
  pH: 7.4861
  pO2: 390
[2]; pigs, Min 4
  ABEc (acid base excess, corrected): 5.8
  Glucose: 102.9
  Lactate: 1.24
  Potassium: 3.71
  pC02: 37.2
  pH: 7.5027
  pO2: 410
[2]; pigs, Min 20
  ABEc (acid base excess, corrected): 5.7
  Glucose: 102.0
  Lactate: 1.20
  Potassium: 3.84
  pC02: 36.8
  pH: 7.5066
  pO2: 419
[2]; pigs, Min 80
  ABEc (acid base excess, corrected): 5.4
  Glucose: 99.7
  Lactate: 1.01
  Potassium: 4.00
  pC02: 37.5
  pH: 7.4943
  pO2: 402
[2]; pigs, Min 140
  ABEc (acid base excess, corrected): 4.1
  Glucose: 100.7
  Lactate: 0.95
  Potassium: 4.10
  pC02: 37.2
  pH: 7.4803
  pO2: 399
[2]; pigs, Min 200
  ABEc (acid base excess, corrected): 3.2
  Glucose: 102.4
  Lactate: 0.96
  Potassium: 4.06
  pC02: 37.6
  pH: 7.4641
  pO2: 356
[3]
  episodes of vomiting or retching: did not produce any episodes of vomiting or retching
[4]
  IV infusion time producing maximal suppression of BIS: 14.7 ± 3.8 min
[5]; 10 mg/kg bolus IV
  MAP % change from baseline: +11%
[5]; 15 mg/kg bolus IV
  MAP % change from baseline: −25%
[5]; 30 mg/kg bolus IV
  MAP % change from baseline: −41%
[6]
  inhibition at 10 µM: > 20%
[7]
  EC50: 2500 nM
[8]
  MTD: 14 mg/kg
[9]; 15.2 mg/kg bolus IV
  deaths: Two rats died
[9]; bolus IV
  HD50 (dose required to cause 50% of the rats to lose righting reflex): 2.1 mg/kg
  HD7min (dose required to produce 7 minutes of anesthesia): 2.3 mg/kg
  TI (therapeutic index, ratio of MTD to HD7 min): 6.1
